The record followed here is patent US8338597B2, “Pyridones useful as inhibitors of kinases” (Vertex Pharmaceuticals Incorporated, priority 2004, dated 2012).

Assay [1] addresses T1, Rlk (Homo sapiens, UniProt P42681).
T1 sequence (P42681 1-527): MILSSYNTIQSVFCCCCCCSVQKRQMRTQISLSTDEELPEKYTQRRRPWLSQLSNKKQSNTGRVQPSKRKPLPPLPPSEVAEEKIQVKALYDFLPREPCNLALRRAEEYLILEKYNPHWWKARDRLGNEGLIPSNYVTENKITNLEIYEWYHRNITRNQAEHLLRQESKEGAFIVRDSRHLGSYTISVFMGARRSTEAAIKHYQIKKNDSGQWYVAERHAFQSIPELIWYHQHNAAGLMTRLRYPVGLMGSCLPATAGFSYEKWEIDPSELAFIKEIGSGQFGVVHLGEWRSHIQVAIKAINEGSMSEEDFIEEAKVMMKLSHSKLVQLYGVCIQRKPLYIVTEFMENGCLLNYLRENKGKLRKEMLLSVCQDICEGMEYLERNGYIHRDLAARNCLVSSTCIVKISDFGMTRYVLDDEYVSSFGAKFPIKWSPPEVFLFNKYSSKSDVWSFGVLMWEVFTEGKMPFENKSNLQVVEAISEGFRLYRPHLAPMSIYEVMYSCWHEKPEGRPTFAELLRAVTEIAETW
Description: RLK inhibition assay, standard coupled enzyme assay. The conditions noted are these: 100 μM ATP, 40 nM Rlk, 30° C. Format: biochemical. As to the method: Compounds were screened for their ability to inhibit Rlk using a standard coupled enzyme assay (Fox et al., Protein Sci., (1998) 7, 2249). Assays were carried out in a mixture of 20 mM MOPS (pH 7.0), 10 mM MgCl2, 0.1% BSA and 1 mM DTT. Final substrate concentrations in the assay were 100 μM ATP (Sigma Chemicals) and 10 μM peptide (Poly Glu:Tyr 4:1). Assays were carried out at 30° C. and in the presence of 40 nM Rlk. Final concentrations of the components of the coupled enzyme system were 2.5 mM phosphoenolpyruvate, 300 μM NADH, 30 μg/ml pyruvate kinase and 10 μg/ml lactate dehydrogenase.
An assay stock buffer solution was prepared containing all of the reagents listed above, with the exception of ATP and the test compound of interest. 60 μl of the stock solution was placed in a 96 well plate followed by addition of […] of DMSO stock containing serial dilutions of the test compound (typically starting from a final concentration of 7.5 μM). The plate was preincubated for 10 minutes at 30° C. and the reaction initiated by addition of 5 μl of ATP. Initial reaction rates were determined with a Molecular Devices SpectraMax Plus plate reader over a 10 minute time course. IC50 and Ki data were calculated from non-linear regression analysis using the Prism software package (GraphPad Prism version 3.0cx for Macintosh, GraphPad Software, San Diego Calif., USA).

The target of assay [2] is T2, Itk (Homo sapiens, UniProt Q08881).
T2 sequence (Q08881 1-620): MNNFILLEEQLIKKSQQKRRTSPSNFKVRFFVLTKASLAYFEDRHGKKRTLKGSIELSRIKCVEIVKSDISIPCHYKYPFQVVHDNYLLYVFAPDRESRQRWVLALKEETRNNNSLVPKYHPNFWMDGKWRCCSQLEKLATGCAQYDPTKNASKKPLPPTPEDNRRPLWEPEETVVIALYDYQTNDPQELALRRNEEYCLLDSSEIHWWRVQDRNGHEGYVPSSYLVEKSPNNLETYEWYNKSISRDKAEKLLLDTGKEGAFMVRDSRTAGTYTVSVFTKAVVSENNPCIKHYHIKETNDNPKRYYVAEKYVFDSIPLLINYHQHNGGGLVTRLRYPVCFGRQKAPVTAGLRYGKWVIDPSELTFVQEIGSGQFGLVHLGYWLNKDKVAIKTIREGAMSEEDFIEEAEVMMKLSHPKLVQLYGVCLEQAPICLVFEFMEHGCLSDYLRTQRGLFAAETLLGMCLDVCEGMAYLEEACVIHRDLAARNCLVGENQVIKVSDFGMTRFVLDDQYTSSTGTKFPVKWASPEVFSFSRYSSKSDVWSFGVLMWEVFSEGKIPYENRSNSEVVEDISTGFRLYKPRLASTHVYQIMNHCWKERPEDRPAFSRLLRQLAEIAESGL
The experiment in a line: ITK inhibition assay, radioactive-phosphate incorporation. Format: biochemical. The conditions noted are these: [γ-33P]ATP, SAM68 peptide, 25° C. The method, then: Assays were carried out in a mixture of 20 mM MOPS (pH 7.0), 10 mM MgCl2, 0.1% BSA and 1 mM DTT. […] Assays were carried out at 25° C. in the presence of 50 nM Itk. An assay stock buffer solution was prepared containing all of the reagents listed above, with the exception of ATP and the test compound of interest.
The reaction was stopped after 10 minutes by the addition of […] 0.2M phosphoric acid+0.01% TWEEN 20. A multiscreen phosphocellulose filter 96-well plate (Millipore, Cat no. MAPHN0B50) was pretreated with 100 μL 0.2M phosphoric acid+0.01% TWEEN 20 prior to the addition of […] of the stopped assay mixture. The plate was washed with 4×200 μL 0.2M phosphoric acid+0.01% TWEEN 20.
Ki(app) data were calculated from non-linear regression analysis of the initial rate data using the Prism software package (GraphPad Prism version 3.0cx for Macintosh, GraphPad Software, San Diego Calif., USA).

For `O=C(Nc1cc(-c2ccncc2)c[nH]c1=O)c1ccc(N2CCNCC2)cc1` [Compound I-71], the Ki in assay [1] was > 1000 nM; in assay [2] it was < 100 nM.

In the case of `CCN(CC)CCN1CCN(c2ccc(C(=O)Nc3cc(-c4ccncc4)c[nH]c3=O)cc2)CC1` [Compound I-74], the Ki is > 1000 nM in assay [1] and < 100 nM in assay [2].

As to `CNc1nccc(-c2c[nH]c(=O)c(NC(=O)c3ccc(C(C)(C)C)cc3)c2)n1` [II-14], the values for the Ki in assay [1] and in assay [2] were < 1000 nM and < 100 nM, respectively.

Turning to `Cn1cc(-c2c[nH]c(=O)c(NC(=O)c3ccc(C(C)(C)C)cc3)c2)cn1` [II-15], the Ki in assay [1] is > 1000 nM; in assay [2] it was 100 to 1000 nM.

In the case of `CNc1cc(-c2c[nH]c(=O)c(NC(=O)c3ccc(C(C)(C)C)cc3)c2)ncn1` [II-17], the Ki in assay [1] was > 1000 nM; in assay [2], < 100 nM.

With `CC(C)(C)c1ccc(C(=O)Nc2cc(-c3ccnc(NC4CCNCC4)n3)c[nH]c2=O)cc1` [II-28], the Ki was < 1000 nM in assay [1] and < 100 nM in assay [2].

In the case of `CC(C)(C)c1ccc(C(=O)Nc2cc(-c3ccnc(NC4CCCNC4)n3)c[nH]c2=O)cc1` (centres unmarked) [II-29], the Ki in assay [1] was < 1000 nM; in assay [2], < 100 nM.

Regarding `CC(C)(C)c1ccc(C(=O)Nc2cc(-c3ccnc(NC4CCNC4)n3)c[nH]c2=O)cc1` (centres unmarked) [II-30], the Ki in assay [1] is < 1000 nM; in assay [2], < 100 nM.

On to `CNc1cc(-c2c[nH]c(=O)c(NC(=O)c3ccc(N4CCCCC4)cc3)c2)ncn1` [II-46], for which, in assay [1], the Ki is > 1000 nM.

On to `CNc1cccc(-c2c[nH]c(=O)c(NC(=O)c3ccc(N4CCCCC4)cc3)c2)n1` [II-47], for which the Ki in assay [1] was > 1000 nM.

As to `CNc1cc(-c2c[nH]c(=O)c(NC(=O)c3ccc(N4CCCCC4)cc3)c2)ccn1` [II-115], the Ki in assay [1] was > 1000 nM.

`CNc1cncc(-c2c[nH]c(=O)c(NC(=O)c3ccc(N4CCCNCC4)cc3)c2)n1` [II-146]: the Ki in assay [2] is < 100 nM.

`CNc1cncc(-c2c[nH]c(=O)c(NC(=O)c3ccc(N4CCC[C@H]4CO)cc3)c2)n1` [II-147]: the Ki in assay [2] was < 100 nM.

On to `O=C(Nc1cc(-c2cccc(NC3(CO)CCCC3)n2)c[nH]c1=O)c1ccc(N2CCCCC2)cc1` [II-150], for which, in assay [2], the Ki is 100 to 1000 nM.

Take `CC[C@@H](CO)Nc1cccc(-c2c[nH]c(=O)c(NC(=O)c3ccc(N4CCCCC4)cc3)c2)n1` [II-151]: the Ki in assay [2] fell in the range of 100 to 1000 nM.

Regarding `CCC(C)[C@@H](CO)Nc1cccc(-c2c[nH]c(=O)c(NC(=O)c3ccc(N4CCCCC4)cc3)c2)n1` (some centres unmarked) [II-152], the Ki in assay [2] fell in the range of 100 to 1000 nM.

Consider `CNc1cncc(-c2c[nH]c(=O)c(NC(=O)c3ccc(OCC4CCNCC4)cc3)c2)n1` [II-153], for which, in assay [2], the Ki is < 100 nM.

Turning to `N#Cc1cncc(-c2c[nH]c(=O)c(NC(=O)c3ccc(N4CCC[C@H]4CN4CCCC4)cc3)c2)c1` [II-154], the Ki in assay [2] was 100 to 1000 nM.

As for `CNc1cncc(-c2c[nH]c(=O)c(NC(=O)c3ccc(N4CCN(C)CC4)cc3)c2)n1` [II-155], the Ki in assay [2] is < 100 nM.

Turning to `CNc1cncc(-c2c[nH]c(=O)c(NC(=O)c3ccc(N4CCC(CCO)CC4)cc3)c2)n1` [II-156], the Ki in assay [2] is < 100 nM.

For the compound `CNc1cccc(-c2c[nH]c(=O)c(NC(=O)c3ccc(OCC4CCNCC4)cc3)c2)n1` [II-157], the Ki in assay [2] was < 100 nM.

With `CNc1cncc(-c2c[nH]c(=O)c(NC(=O)c3ccc(OCCN4CCNCC4)cc3)c2)n1` [II-158], the Ki in assay [2] was < 100 nM.

As to `CNc1cncc(-c2c[nH]c(=O)c(NC(=O)c3ccc(N4CCCCC4)cc3)c2)c1` [II-159], the Ki in assay [1] was > 1000 nM.

With `N#Cc1ccnc(-c2c[nH]c(=O)c(NC(=O)c3ccc(N4CCNCC4)cc3)c2)c1` [II-161], in assay [2], the Ki lay in the range of 100 to 1000 nM.

In the case of `CNc1cncc(-c2c[nH]c(=O)c(NC(=O)c3ccc(NCCN4CCCC4)cc3)c2)n1` [II-162], in assay [2], the Ki is < 100 nM.

With `CNc1cncc(-c2c[nH]c(=O)c(NC(=O)c3ccc(N(C)CCc4cnc[nH]4)cc3)c2)n1` [II-165], in assay [2], the inhibition constant Ki is < 100 nM.

As to `CNc1cncc(-c2c[nH]c(=O)c(NC(=O)c3ccc(N(C)CCCN(C)C)cc3)c2)n1` [II-167], the Ki in assay [2] is < 100 nM.

In the case of `CNc1cc(-c2c[nH]c(=O)c(NC(=O)c3ccc(N4CCNCC4)cc3)c2)ccn1` [II-169], in assay [2], the Ki was < 100 nM.

Regarding `CNc1cc(-c2c[nH]c(=O)c(NC(=O)c3ccc(OCC4CCNCC4)cc3)c2)ncn1` [II-170], the Ki in assay [2] was < 100 nM.

As for `CNc1cc(-c2c[nH]c(=O)c(NC(=O)c3ccc(N4CCC[C@H]4CN4CCCC4)cc3)c2)ccn1` [II-172], the Ki in assay [2] was < 100 nM.

On to `O=C(Nc1cc(-c2cccc(NC(CO)CO)n2)c[nH]c1=O)c1ccc(N2CCCCC2)cc1` [II-174], for which, in assay [2], the Ki lay within 100 to 1000 nM.

For the compound `CCNc1cncc(-c2c[nH]c(=O)c(NC(=O)c3ccc(N4CCC[C@H]4CN4CCCC4)cc3)c2)n1` [II-175], the Ki in assay [2] was 100 to 1000 nM.

Consider `O=C(Nc1cc(-c2cncc(NC3CC3)n2)c[nH]c1=O)c1ccc(N2CCC[C@H]2CN2CCCC2)cc1` [II-176], for which, in assay [2], the Ki lay within 100 to 1000 nM.

For `CNc1cncc(-c2c[nH]c(=O)c(NC(=O)c3ccc(OCCCN4CCCCC4)cc3)c2)n1` [II-177], the Ki in assay [2] is < 100 nM.

In the case of `CNc1cncc(-c2c[nH]c(=O)c(NC(=O)c3ccc(OC4CCNCC4)cc3)c2)n1` [II-181], in assay [2], the Ki is < 100 nM.

Take `CNc1cncc(-c2c[nH]c(=O)c(NC(=O)c3ccc(OCCCN4CCOCC4)cc3)c2)n1` [II-182]: the Ki in assay [2] is < 100 nM.

Take `CCc1ccc(NC(=O)c2cc(-c3ccncc3)c[nH]c2=O)cc1` [III-7]: the Ki in assay [2] lay in the range of 100 to 1000 nM.

With `O=C(Nc1ccc(Br)cc1)c1cc(-c2ccncc2)c[nH]c1=O` [III-8], the Ki in assay [2] is 100 to 1000 nM.

`COc1ccc(NC(=O)c2cc(-c3ccncc3)c[nH]c2=O)cc1` [III-11]: the Ki in assay [2] lay within 100 to 1000 nM.

Take `COc1ccc(NC(=O)c2cc(-c3ccncc3)c[nH]c2=O)cc1OC` [III-16]: the Ki in assay [2] lay within 100 to 1000 nM.

For the compound `O=C(Nc1ccc(N2CCOCC2)cc1)c1cc(-c2ccncc2)c[nH]c1=O` [III-42], the inhibition constant Ki in assay [2] was < 100 nM.

In the case of `O=C(Nc1ccc(C2CCCCC2)cc1)c1cc(-c2ccncc2)c[nH]c1=O` [III-43], in assay [2], the Ki was 100 to 1000 nM.

Take `O=C(Nc1ccc(N2CCCCC2)cc1)c1cc(-c2ccncc2)c[nH]c1=O` [III-44]: in assay [2], the Ki was < 100 nM.

`CCOc1ccc(NC(=O)c2cc(-c3ccncc3)c[nH]c2=O)cc1` [III-45]: the Ki in assay [2] lay within 100 to 1000 nM.

As to `CN1CCN(c2ccc(NC(=O)c3cc(-c4ccncc4)c[nH]c3=O)cc2)CC1` [III-46], in assay [2], the Ki was < 100 nM.

As for `CCN1CCN(c2ccc(NC(=O)c3cc(-c4ccncc4)c[nH]c3=O)cc2)CC1` [III-47], the Ki in assay [2] is < 100 nM.

Take `O=C(Nc1ccc(N2CCC(O)CC2)cc1)c1cc(-c2ccncc2)c[nH]c1=O` [III-52]: in assay [2], the Ki is < 100 nM.

In the case of `O=C(Nc1ccc(N2CCNCC2)cc1)c1cc(-c2ccncc2)c[nH]c1=O` [III-54], in assay [2], the Ki was < 100 nM.

As usually defined, the Ki is the dissociation constant of the complex between target and ligand, obtained from inhibition or displacement.
